Data as given in patent US20210134398A1, “Combinatorial Chemistry Computational System and Enhanced Selection Method” (Southern Methodist University, priority 2019, published 2021).
“Also recorded” adds a separate entry of the source.

Key:
[1] = target: T1, cysteineless mouse P-glycoprotein (Mus musculus, UniProt P21447, C1070A/C1121A/C1223A/C133A/C427A/C638A/C669A/C713A/C952A); test: SL-ATP (spin-labeled ATP analog) binding titration by ESR; settings: for Maximum ATP binding: in the presence of the compound, ± standard deviation
T1 construct: made in house; host or cells: Pichia pastoris
Procedure: Effects of 29 variants on binding of an ATP-analog to purified P-glycoprotein. ATP binding in the presence of the 29 variants was assessed in titration assays using a spin-labeled analog of ATP, 2′,3′-SL-ATP (2′,3′-(2,2,5,5,-tetramethyl-3-pyrroline-1-oxyl-3-carboxylic acid ester) ATP; (2′,3′ indicates a rapid equilibrium of the ester bond between the C2′ and C3′ of the ribose moiety))^48-50, and electron spin resonance spectroscopy as described in^26. Due to the lower stability of the human P-glycoprotein in the extended times needed for these experiments, the cysteineless mouse protein was used here. The goal was to assess whether binding of the 29 variants to P-gp affected nucleotide binding to the protein.
ESR Measurements. ESR measurements were as described in^26. The amount of protein-bound spin-labeled (SL) adenine nucleotide was determined as the difference between the known total concentration of SL-ATP (2′,3′-(2,2,5,5,-tetramethyl-3-pyrroline-1-oxyl-3-carboxylic acid ester) —ATP^48) added and the free spin-labeled nucleotide (SL-ANP) observed in the experiment. Hyperbolic curve fitting of the results was performed using GraphPad Prism 7 to determine maximum binding and apparent affinity for the spin-labeled nucleotide. The equation used for the fitting the curves was […], where P1 corresponds to the maximum binding of SL-ANP (moles of SL-ANP bound per mole P-gp), and P2 equals the apparent dissociation constant for SL-ANP. To quantify the amount of free SL-ANP, standard curves were established where the signal amplitude of the high field signal of the ESR spectra of free SL-ANP in the absence of protein was correlated to the concentration of SL-ANP added. All ESR measurements were performed using a Bruker EMX 6/1 ESR spectrophotometer operating in X-band mode and equipped with a high sensitivity cavity. Spectra were acquired at a microwave frequency of 9.33 GHz, microwave power of 12.63 mW, 100 kHz modulation frequency and a resolution of 1024 points. The centerfield of the scan was at 3325 G and an area of 100 G was scanned. The peak to peak modulation amplitude was 1G and the time constant was set to 10.240 ms. The conversion time was 163.84 ms, resulting in a total time sweep of 167.772 s. The signal gain was adjusted for the SL-ATP concentrations in the different experiments.

[2] = target: T2, Normal Human MDR1 P-glycoprotein (Homo sapiens, UniProt P08183); test: ATPase activity assay (basal and verapamil-stimulated), P-gp in nanodiscs; format: biochemical; settings: for Effect on stimulated ATPase / Stimulated ATPase: in the presence of verapamil; for Stimulated ATPase / Basal ATPase: ± standard deviation; for Effect on basal ATPase / Basal ATPase: no added transport substrate
T2 construct: made in house; host or cells: Pichia pastoris (P-gp); E. coli BL21 (DE3) (MSP1E3D1)
Source text: To assess whether the observed discrepancies of compounds stimulating basal P-gp ATPase activity but not being transport substrates of the human pump in the cell culture assessments were due to the fact that these biochemical assays used a cysteineless variant of the mouse MDR3 P-glycoprotein, the experiments were repeated using normal human MDR1 P-gp. In order to stabilize the human protein for the activity assays, the protein was assembled into membrane nanodiscs as described herein.
(§1) P-glycoprotein Purification. Cysteine-less MDR3 and the human normal MDR1 P-glycoprotein was recombinantly expressed in the yeast Pichia pastoris essentially as in^45, 46 and used for assaying ATP hydrolysis and ATP binding to the protein in the presence of the 29-variants. Purification of the protein was performed as described^49 with small modifications resulting in highly enriched P-gp in mixed micelles containing dodecyl maltoside (DDM) and lysophosphatidyl choline^26.
Nanodisc assembly. Human P-gp in mixed detergent micelles obtained during protein purification, was reconstituted into nanodiscsas described in references^73, 74 with small modifications. […] The detergent was removed with Bio-Beads™ SM-2 Adsorbent Media (BioRad). Ni-NTA Agarose (Qiagen) chromatography was used to purify P-gp reconstituted nanodiscs using 6 bed volumes of start buffer (20% (v/v) glycerol, 50 mM Tris-CL pH 7.5 at 4° C., 50 mM NaCl), and 5 bed volumes of elution buffer (20% (v/v) glycerol, 50 mM Tris-Cl pH 7.5 at 4° C., 50 mM NaCl, 300 mM imidazole).
(§2) ATPase Activity Assays. ATP hydrolysis activity was measured using a coupled enzyme assay^72 as modified in reference^26.

[3] = target: T3, Cysteineless Mouse MDR3 P-glycoprotein (Mus musculus, UniProt P21447, C1070A/C1121A/C1223A/C133A/C427A/C638A/C669A/C713A/C952A); test: ATPase activity assay (basal and verapamil-stimulated), purified P-gp in mixed micelles; format: biochemical; settings: for Effect on stimulated ATPase / Stimulated ATPase: in the presence of verapamil; for Stimulated ATPase / Basal ATPase: ± standard deviation; for Effect on basal ATPase / Basal ATPase / Stimulation of basal ATPase: no added transport substrate
T3 construct: made in house; host or cells: Pichia pastoris
Procedure: Evaluation of mode of inhibition of P-glycoprotein by Group 1 and Group 2 variants of compound 29. To assess the mode of inhibition of P-gp by the novel variants of P-gp inhibitor 29, ATP hydrolysis by P-gp was evaluated in the presence or absence of the variants. […] Murine P-gp (MDR3) expressed in Pichia pastoris that had all naturally occurring cysteines replaced with alanine, was used^45, 46. It is widely assumed that the ATP hydrolytic rate of P-gp is stimulated in the presence of transport substrates when compared to ATP hydrolysis in the absence of transport substrates. Assays comparing these rates can therefore be useful not only in identifying inhibitors of P-gp catalyzed ATP hydrolysis, but also to potentially infer whether a compound might be a transport substrate if basal ATPase rates are stimulated by the addition of a compound.
as §1, §2

[4] = target: T4, P-gp-catalyzed transport of calcein AM in DU145TXR cells (Homo sapiens, UniProt P08183); test: Calcein AM accumulation assay; format: cell-based; settings: without pre-incubation, compared to parental 29; 5 μM stated for Group 2
T4 construct: DU145 human prostate cancer cells^52 as well as the multidrug resistant sub-line, DU145TXR; endogenous in cells; host or cells: DU145TXR (paclitaxel-selected sub-line of human DU145 prostate cancer cells)
T4 sequence (P08183 whole entry): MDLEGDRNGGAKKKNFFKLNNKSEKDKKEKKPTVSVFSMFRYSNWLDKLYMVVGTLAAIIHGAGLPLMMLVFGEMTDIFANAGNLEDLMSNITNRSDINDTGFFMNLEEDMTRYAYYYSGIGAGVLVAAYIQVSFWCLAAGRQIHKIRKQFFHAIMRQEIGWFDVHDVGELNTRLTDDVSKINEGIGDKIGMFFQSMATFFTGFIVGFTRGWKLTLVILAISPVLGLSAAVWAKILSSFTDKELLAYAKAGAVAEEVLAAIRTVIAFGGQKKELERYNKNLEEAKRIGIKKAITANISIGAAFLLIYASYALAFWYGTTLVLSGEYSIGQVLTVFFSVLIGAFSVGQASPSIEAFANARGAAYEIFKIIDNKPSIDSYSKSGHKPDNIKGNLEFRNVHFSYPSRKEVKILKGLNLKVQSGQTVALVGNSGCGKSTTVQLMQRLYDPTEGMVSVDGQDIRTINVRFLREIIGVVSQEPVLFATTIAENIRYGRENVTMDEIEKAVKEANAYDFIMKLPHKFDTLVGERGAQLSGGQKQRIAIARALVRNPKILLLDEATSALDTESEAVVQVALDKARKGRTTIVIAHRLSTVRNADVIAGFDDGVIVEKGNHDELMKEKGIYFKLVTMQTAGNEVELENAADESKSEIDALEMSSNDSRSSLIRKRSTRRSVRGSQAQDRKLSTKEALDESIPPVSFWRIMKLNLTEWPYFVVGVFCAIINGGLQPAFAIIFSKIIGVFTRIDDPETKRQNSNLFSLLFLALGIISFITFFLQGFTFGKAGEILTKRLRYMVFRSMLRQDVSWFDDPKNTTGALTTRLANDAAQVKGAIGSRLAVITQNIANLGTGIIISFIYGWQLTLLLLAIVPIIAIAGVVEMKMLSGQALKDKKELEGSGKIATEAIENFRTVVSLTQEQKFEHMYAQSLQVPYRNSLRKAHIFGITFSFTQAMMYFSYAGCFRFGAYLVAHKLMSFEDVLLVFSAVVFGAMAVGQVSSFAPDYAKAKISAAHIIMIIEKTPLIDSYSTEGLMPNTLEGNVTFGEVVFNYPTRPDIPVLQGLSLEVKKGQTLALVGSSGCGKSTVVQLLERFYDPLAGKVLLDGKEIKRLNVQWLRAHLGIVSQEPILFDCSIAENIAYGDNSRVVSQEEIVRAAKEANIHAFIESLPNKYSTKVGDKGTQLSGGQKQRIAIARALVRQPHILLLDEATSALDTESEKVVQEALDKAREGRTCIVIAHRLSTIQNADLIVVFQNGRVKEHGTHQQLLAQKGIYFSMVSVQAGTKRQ

T2 sequence (P08183 whole entry): as above
T1 sequence (P21447 whole entry C133A/C427A/C638A/C669A/C713A/C952A/C1070A/C1121A/C1223A): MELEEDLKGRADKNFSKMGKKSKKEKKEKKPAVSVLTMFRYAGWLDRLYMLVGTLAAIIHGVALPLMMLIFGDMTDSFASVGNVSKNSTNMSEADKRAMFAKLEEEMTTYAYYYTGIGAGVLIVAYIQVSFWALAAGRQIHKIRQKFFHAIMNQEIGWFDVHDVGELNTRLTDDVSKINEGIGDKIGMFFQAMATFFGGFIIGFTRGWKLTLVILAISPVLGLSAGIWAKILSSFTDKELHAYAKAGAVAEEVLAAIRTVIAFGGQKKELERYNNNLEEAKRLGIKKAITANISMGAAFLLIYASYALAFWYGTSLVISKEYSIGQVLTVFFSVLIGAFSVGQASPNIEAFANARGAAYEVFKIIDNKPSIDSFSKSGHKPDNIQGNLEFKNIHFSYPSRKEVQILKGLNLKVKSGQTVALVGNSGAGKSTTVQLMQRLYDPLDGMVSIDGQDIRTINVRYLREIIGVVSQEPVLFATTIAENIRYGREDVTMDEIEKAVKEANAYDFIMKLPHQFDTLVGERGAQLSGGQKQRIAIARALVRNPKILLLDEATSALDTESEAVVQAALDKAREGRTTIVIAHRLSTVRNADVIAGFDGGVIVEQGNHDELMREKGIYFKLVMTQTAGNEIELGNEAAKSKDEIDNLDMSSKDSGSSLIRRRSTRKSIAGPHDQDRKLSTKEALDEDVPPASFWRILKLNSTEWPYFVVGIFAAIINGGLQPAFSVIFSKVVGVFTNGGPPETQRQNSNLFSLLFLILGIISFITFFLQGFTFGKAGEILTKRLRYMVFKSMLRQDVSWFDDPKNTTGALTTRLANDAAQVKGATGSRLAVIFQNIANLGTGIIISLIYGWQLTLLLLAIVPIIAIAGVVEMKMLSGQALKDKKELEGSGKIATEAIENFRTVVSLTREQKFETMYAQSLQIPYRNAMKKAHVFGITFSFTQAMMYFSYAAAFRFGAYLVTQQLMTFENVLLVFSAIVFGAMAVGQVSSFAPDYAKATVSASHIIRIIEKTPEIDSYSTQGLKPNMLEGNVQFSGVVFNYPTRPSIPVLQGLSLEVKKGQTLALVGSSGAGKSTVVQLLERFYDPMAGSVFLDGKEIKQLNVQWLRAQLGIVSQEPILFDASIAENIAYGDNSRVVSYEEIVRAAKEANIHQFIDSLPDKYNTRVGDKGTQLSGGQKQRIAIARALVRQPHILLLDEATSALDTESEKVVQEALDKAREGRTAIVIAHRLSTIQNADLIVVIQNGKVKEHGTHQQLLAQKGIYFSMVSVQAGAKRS
T3 sequence (P21447 whole entry C133A/C427A/C638A/C669A/C713A/C952A/C1070A/C1121A/C1223A): as above

Row | Molecule | Effect on SL-ANP binding [1] | Maximum ATP binding [1] | Effect on stimulated ATPase [2] | Stimulated ATPase [2] | Effect on basal ATPase [2] | Basal ATPase [2] | Stimulated ATPase [3] | Basal ATPase [3] | Calcein accumulation in DU145TXR (in words) [4] | Effect on basal ATPase [3] | Stimulation of basal ATPase [3] | further results
1 | 2-{[2-(9H-flouoren-2-yl)-2-oxoethyl]}-N-[1-phenyl-3-(2,4,5-trimethylphenyl0-1H-pyrazol-5-yl]acetamide [29-216] | no | 1.7 ± 0.1 mol SL-ANP bound/mol P-gp | inhibitor | 64 ± 6 % of DMSO | inhibitor | 69 ± 8 % of DMSO | 108 ± 2 % of DMSO | 105 ± 7 % of DMSO | – | – | – | Effect on stimulated ATPase ([3]; listed as 216): did not affect; also recorded: little effect; Effect on stimulated ATPase ([3]; listed as SMU29-216): none; Effect on basal ATPase ([3]; listed as 216): did not significantly affect; also recorded: did not activate; Effect on basal ATPase ([3]; listed as SMU29-216): none
2 | Cc1cc(C)c(-c2cc(NC(=O)CSCC(=O)N3c4ccccc4CCc4ccccc43)n(-c3ccccc3)n2)cc1C [29-227, 2-[(2-{2-azatricyclo[9.4.0.0]pentadeca-1(11),3(8},4,6,12,14-hexaen-2-yl)-2-oxoethyl)sulfanyl]-N-[1-phenyl-3-(2,4,5-trimethylphenyl)-1H-pyrazol-5-yl]acetamide] | no | 1.8 ± 0.1 mol SL-ANP bound/mol P-gp | inhibitor | 62 ± 5 % of DMSO | none | 83 ± 7 % of DMSO | 50 ± 2 % of DMSO | 88 ± 4 % of DMSO | – | – | – | Effect on stimulated ATPase ([3]; listed as 227): inhibited activity similar to parental compound 29; also recorded: inhibited verapamil-stimulated ATPase activity; Effect on stimulated ATPase ([3]; listed as SMU29-227): inhibitor; Effect on basal ATPase ([3]; listed as 227): did not significantly affect; also recorded: did not activate; Effect on basal ATPase ([3]; listed as SMU29-227): none
3 | Cc1cc(C)c(-c2cc(NC(=O)CSCC(=O)Nc3ccc4ccccc4c3)n(-c3ccccc3)n2)cc1C [29-231, 2-({[(naphthalen-2-yl)carbamoyl]methyl}sulfanyl)-N-[1-phenyl-3-(2,4,5-trimethylphenyl)-1H-pyrazol-5-yl]acetamide] | marginally | 1.8 ± 0.1 mol SL-ANP bound/mol P-gp | inhibitor | 40 ± 3 % of DMSO | inhibitor | 70 ± 4 % of DMSO | 141 ± 18 % of DMSO | 70 ± 0 % of DMSO | – | – | – | Effect on stimulated ATPase ([3]; listed as 231): slightly stimulated; Effect on stimulated ATPase ([3]; listed as SMU26-231): stimulator; Effect on basal ATPase ([3]; listed as SMU26-231): inhibitor
4 | COc1cc(NC(=O)CSCC(=O)Nc2cc(-c3cc(C)c(C)cc3C)nn2-c2ccccc2)cc(OC)c1OC [29-238, N-[1-phenyl-3-(2,4,5-trimethylphenyl)-1H-pyrazol-5-yl]-2-({[(3,4,5-trimethoxyphenyl)carbamoyl]methyl}sulfanyl)acetamide] | yes | – | inhibitor | 61 ± 7 % of DMSO | none | 89 ± 7 % of DMSO | 194 ± 22 % of DMSO | 1143 ± 46 % of DMSO | considerably increased calcein accumulation | stimulator | ~10 fold | Maximum ATP binding ([1]; listed as 238): about 1 mol SL-ANP bound/mol P-gp; Maximum ATP binding ([1]; listed as SMU29-238): 1.2 ± 0.1 mol SL-ANP bound/mol P-gp; Effect on stimulated ATPase ([3]; listed as 238): about two-fold; Effect on stimulated ATPase ([3]; listed as SMU29-238): stimulator
5 | Cc1cc(C)c(-c2cc(NC(=O)CSCC(=O)Nc3ccc4ncsc4c3)n(-c3ccccc3)n2)cc1C [29-255, 2-({[(1,3-benzothiazol-6-yl)carbamoyl]methyl}sulfanyl)-N-[1-phenyl-3-(2,4,5 trimethylphenyl)-1H-pyrazol-5-yl]acetamide] | no | 1.9 ± 0.1 mol SL-ANP bound/mol P-gp | inhibitor | 59 ± 6 % of DMSO | none | 84 ± 9 % of DMSO | 123 ± 15 % of DMSO | 355 ± 7 % of DMSO | considerably increased calcein accumulation | stimulator | ~3 fold | Effect on stimulated ATPase ([3]; listed as SMU29-255): none
6 | Cc1cc(C)c(-c2cc(NC(=O)CSc3nnc(C4CC4)[nH]3)n(-c3ccccc3)n2)cc1C [compound 29, reference compound] | – | – | inhibitor | 62 ± 3 % of DMSO | none | 88 ± 9 % of DMSO | 49 ± 2 % of DMSO | 95 ± 11 % of DMSO | – | none | – | Effect on stimulated ATPase [3]: inhibitor
